Experimental data from patent US11192932B2, “Heparin-binding domain of IGFBP-2 in the treatment of metabolic disorders” (Amolyt Pharma, priority 2018, dated 2021).
Entries after “also recorded” stand apart in the source; their conditions may differ. No end group written: not given here. *: point of attachment. Stearoyl = CCCCCCCCCCCCCCCCCC(=O)*

What was measured:
[1] = system: ob/ob mice; test: Intraperitoneal glucose tolerance test (IPGTT) in ob/ob mice after 15 days of treatment; assay type: in vivo, mouse; conditions: 3 mg/kg subcutaneously twice daily for 15 days, overnight fasted, glucose 1 g/kg i.p., vs vehicle
Method: Data shown are blood glucose levels (Mean±SEM) 45 min after intraperitoneal glucose tolerance test (IPGTT). (n=5 in each group; ***: p value <0.001).
After being acclimatized 7 days to the laboratory conditions, nine-week-old male B6. V-Lepob/J. mice (Charles River) were subcutaneously administered with vehicle (NaCl 0.9%) or with a peptide as set forth in SEQ ID NO: 73 (C18:0-HLGLEEPKK) at 3 mg/kg (n=5 animals for each group) twice daily for 15 days. On day 15, fasted (overnight) mice were injected intraperitoneally with glucose at 1 g/kg. Plasma blood glucose (expressed as mmol/L) was recorded at 45 minutes post glucose injection.

[2] = system: 3T3-LI adipocytes; test: [3H]-2-deoxyglucose uptake by fully differentiated 3T3-LI adipocytes; assay type: cell-based, mouse; conditions: 3 μg/ml for 24 hours
Method: The cells were exposed to the test compounds at a concentration of 3 μg/ml for 24 hours before testing for [^3H]-2-deoxyglucose uptake.
3T3-LI cells are a mouse fibroblast cell line which when cultured under specific conditions, differentiate into adipocytes.
Differentiation of 3T3-LI cells into adipocytes was achieved using the following protocol. 3T3-L1 cells were seeded in 24-well plates and cultured in 3T3-L1 maintenance medium (DMEM containing 10% fetal bovine serum, 4 mM L-glutamine 1 mM, sodium pyruvate) until the cells were 100% confluent. The cells were then fed with 3T3-L1 maintenance medium and cultured for a further 48 h. To initiate differentiation into adipocytes, the medium was changed to Differentiation medium 1 (DMEM containing 10% fetal bovine serum, 4 mM L-glutamine, 1 mM sodium pyruvate, 0.5 mM IBMX, […]), and cultured for a further 2 days. The medium was then changed to Differentiation medium 2 (DMEM containing 10% fetal bovine serum, 4 mM L-glutamine, 1 mM sodium pyruvate, 1 mg/ml insulin), and cultured for a further 2 days. The medium was then changed to Adipocyte Maintenance medium (DMEM containing 10% fetal bovine serum, 4 mM L-glutamine, 1 mM sodium pyruvate), and cultured for a further 7 days. During this time, the medium was changed every other day. The now fully differentiated adipocytes were utilized for glucose uptake experiments (day 11 from initiation of differentiation). Stock solutions of the HBD1 peptides to be tested were prepared by dilution with 0.9% NaCl solution under sterile conditions in a laminar flow cabinet to a concentration of 1 mg/ml, based on net peptide content. The solutions were homogenized by gentle inversion. Test items were prepared from the stock solutions, and remaining stock solution was aliquoted and stored at −20° C. and used without repeated freeze-thaw cycles.
Glucose uptake experiments were carried our using the following protocol. Prior to beginning the experiment, 100 ml of Krebs Ringer bicarbonate buffer (KRBB)(25 mM Hepes pH 7.4, 118 mM NaCl, 5 mM NaHCO3, 4.7 mM KCl, 1.2 mM KH2PO4, 1.2 mM MgSO4, 2.5 mM CaCl2, 0.2% BSA—Filtered using a 0.2 μm filter) and 100 ml of Incubation medium (DMEM containing 4 mM L-glutamine, 1 mM sodium pyruvate, 1% penicillin streptomycin, 0.2% BSA—Filtered using a 0.2 μm filter) were pre-warmed to 37° C., and 500 ml of KRBB was chilled on ice. Stock solutions of test compounds were diluted to 3 μg/ml final concentrations in pre-warmed Incubation medium and in pre-warmed KRBB. Insulin (positive control), previously diluted 1:1000 in sterile 0.9% NaCl, was further diluted in 10 ml of both medium and buffer to a final concentration of 1 nM. All traces of the medium were carefully removed from the cells using a fine tip. […]

[3] = system: Akt; test: Akt phosphorylation (immunoblot anti-Akt pS473) in C2C12 myotubes; assay type: cell-based, mouse; conditions: peptide incubated 8 hours (FIG. 6)
Method: In particular: HBD1 SEQ ID NO: 73 (C18:0-HLGLEEPKK). The Akt pathway is utilized by both insulin and IGF1 to ultimately induce GLUT4 translocation to the cell membrane to facilitate the uptake and metabolism of glucose.
(§1) For signaling studies the cells were prepared the same way except 6-well plates were used. After 6 days incubation in differentiating medium, the cells were washed with serum-free medium. The various treatments were then added in serum free medium containing 0.1% BSA. HBD1 peptides were added and incubated for 8 hours. When utilizing IGF-I, incubation was for 15 minutes after IGF-1 addition. Following incubation the cells were lysed in RIPA buffer and sonicated. The cell lysate was centrifuged and the supernatant analyzed for either Akt or AMPK by SDS PAGE using a 10% gel followed by immunoblotting with the appropriate antibody.
To examine the intracellular transduction pathways utilized by the HBD1 peptides, following treatment with HBD1 peptide SEQ ID NO: 73 (C18:0-HLGLEEPKK), cell lysate proteins were separated by SDS PAGE and immunoblotted with anti-Akt pS473 antibodies.

[4] = system: AMPK; test: AMPK phosphorylation (immunoblot anti-pAMPK T172) in C2C12 myotubes; assay type: cell-based, mouse; conditions: C2C12 myotubes, peptide incubated 8 hours (FIG. 7)
Method: In particular: HBD1 SEQ ID NO: 73 (C18:0-HLGLEEPKK). The AMPK pathway is both insulin and IGF1 independent, but acts ultimately to induce GLUT4 translocation to the cell membrane to facilitate the uptake and metabolism of glucose.
as §1
To examine further the intracellular transduction pathways utilized by the HBD1 peptides, following treatment with HBD1 peptide SEQ ID NO: 73 (C18:0-HLGLEEPKK), cell lysate proteins, were separated by SDS PAGE and immunoblotted with anti-pAMPK T172.

C18:0-HLGLEEPKK (Stearoyl-HLGLEEPKK) [SEQ ID NO: 73]
blood glucose levels 45 min after intraperitoneal glucose tolerance test (IPGTT) [1]: reduced the plasma glucose levels
blood glucose levels 45 min after intraperitoneal glucose tolerance test (IPGTT) ([1]; listed as acylated HBD1 (3-11) fragment): improves glucose intolerance
glucose uptake by 3T3-LI adipocytes [2]: stimulated increased glucose uptake
phosphorylated Akt (pS473) [3]: dose-related increase in phosphorylated Akt; also recorded: dose-dependent phosphorylation (activation) of the Akt pathway
phosphorylated AMPK (T172) [4]: dose-dependent increase in phosphorylated AMPK; also recorded: dose-dependent phosphorylation (activation) of the AMPK pathway
